In US6989263B1, “Method for identifying and using compounds that inactivate HIV-1 and other retroviruses by attacking highly conserved zinc fingers in the viral nucleocapsid protein” (The United States of America as represented by the …, priority 1994, dated 2006):

Tests used:
[1] = target: T1, HIV NC protein in intact virus (Human immunodeficiency virus type 1 group M subtype B, UniProt P05888); test: Cross-linking of NC protein in intact HIV (non-reducing gel-mobility shift, western blot); assay type: biochemical, HIV-1
T1 construct: endogenous in cells; host or cells: intact HIV virions
Text: Purified concentrated retrovirus and antisera against the purified NC protein of the virus can be used to test the ability of a specific compound to penetrate the virus and react with the NC protein by forming disulfide complexes in the core of the virus. The compound is mixed with the whole retrovirus under reaction conditions appropriate for the compound. The virus is then removed from the reagent by centrifugation and disrupted in, e.g, standard SDS-PAGE sample buffer with (reduced) and without (non-reduced) 2-mercaptoethanol. The viral proteins are then separated by standard SDS-PAGE and the sample examined for the presence or absence of the monomeric NC protein in the non-reduced sample. Depending upon the virus used in the experiment and the conditions of electrophoresis, the NC protein can be visualized by protein staining methods, or by immuno-blot (e.g., western) methods. Compounds which react with the NC protein by attacking the zinc finger complexes and forming disulfide cross-linked products (i.e., which generate multimers in the mobility shift assay) inactivate the virus. Thus, compounds of interest (i.e., those which cause cross-linking) reduced the amount of monomeric NC protein detected.
In order to determine whether HIV-1MN was inactivated by NOBA, the virus was incubated with varying concentrations of NOBA (3.0, 0.3, 0.03 and 0 mM) as in Table 1. The reaction products were pelleted by centrifugation, and separated by SDS-PAGE under reducing (2% 2-mercaptoethanol, panel A), or non-reducing conditions (panel B). p7NC was visualized by immunoblot analysis using monospecific rabbit antisera to the purified NC proteins as per L. E. Henderson et al., J. Virol. 66:1856 (1992).
Disulfide reagents were further tested for their ability to disrupt NC structure in the virus, based on their ability to cause inter-NC cysteine disulfide bonds (i.e., cross-linking) in the intact virus. The formation of inter-NC cysteine disulfides creates NC multimers, which migrate through a non-reducing gel at a different rate than NC monomers, as described above. Intact HIV virus (generally 12.5 μM) was exposed to the specified reagent (generally 25 μM) for varying lengths of time and electrophoresed through a non-reducing SDS-polyacrylamide gel. HIV NC monomers and multimers were visualized by western blot analysis as described above in Example 3. The approximate time required to cross-link one-half of the NC proteins in the virus at the specified reaction conditions was then determined. […] The top number in the cells of the X-link column in Table 2 refers to the approximate time in minutes required for one-half of the HIV NC proteins to become cross-linked.

genomic RNA = settings: cited from earlier work

NC(=O)c1cccc(N=O)c1 [NOBA, 3-nitrosobenzamide]
cross-linking of the HIV-1 NC protein in intact virus (gel-mobility shift), in words [1]: caused a cross-linking of the HIV-1 NC protein | amounts of detected p7NC under non-reducing conditions ([1]; HIV-1MN, NOBA 3.0, 0.3, 0.03 mM, immunoblot): decreased with increasing NOBA concentration | levels of genomic RNA in the inactivated virus (genomic RNA): did not influence
